{"source": "patent EP2766407B1", "about": "“PENTABLOCK POLYMERS” (The Curators Of The University Of Missouri, priority 2011, dated 2013)", "format_in_all_cases": "cell-based", "key": {"[1]": {"tested_on": "RAW 264.7 (mouse macrophage cell line)", "assay": "MTS assay (cytotoxicity), Pentablock Polymer A protocol", "details": "RAW 264.7, Triton X control; blank = 100", "description": "(§1) The cytotoxicity and biocompatibility of the Pentablock Polymer A and Pentablock Polymer B were investigated in several cell lines. ARPE-19 (human retinal pigment epithelial cell line), SIRC (rabbit corneal cell line), and RAW 264.7 (mouse macrophage cell line) were obtained from American Type Culture Collection (\"ATCC\"). ARPE-19 cells were cultured in Dubelcco's modified Eagle's medium (\"DMEM/F12\") supplemented with 10% fetal bovine serum (\"FBS\"), 100 U/mL penicillin and 100 µg/mL of streptomycin. SIRC cells were cultured in minimum essential medium (\"MEM\") and supplemented with 10% FBS, 100 U/mL of penicillin and 100 µg/mL of streptomycin. RAW 264.7 (Mouse macrophage cells) cells were cultured in DMEM/F12supplemented with 10% FBS, 10% of nonessential amino acids, 100 U/mL penicillin and 100 µg/mL of streptomycin. The pH of the medium was adjusted to 7.4 and cells were incubated in humidified atmosphere at 37 °C temperature with 5% CO2 environment. The cell cultures were exposed directly to different concentrations of Pentablock Polymer A and Pentablock Polymer B. […]\n(§2) MTS assay is based on the reduction of the tetrazolium salt (yellow) to fromazone (purple) by mitochondrial enzymes of metabolic active cells. […] After incubation, the absorbance of each well was measured at 450 nm by ELISA plate reader. The absorbance is directly proportional to viability of cells. […]"}, "[2]": {"tested_on": "SIRC (rabbit corneal cell line)", "assay": "MTS assay (cytotoxicity), Pentablock Polymer A protocol", "details": "Triton X control, blank = 100", "description": "as §1, §2"}, "PCEC": {"tested_on": "PCEC", "assay": "MTS assay (cytotoxicity), Pentablock Polymer B protocol", "details": "Triton X control, blank = 100", "description": "Pentablock Polymer B: Cytotoxicity for Pentablock Polymer B was performed at different concentration ranging from 0.5-10 mg/ml. The plates were seeded with cell density of 10,000 cells/100 µL. After 24 hours of incubation fresh medium containing hydrogel of different concentration ranging from 0.5-10 mg/ml were added and further incubated for 24 hours. MTS assay is based on the reduction of the tetrazolium salt (yellow) to fromazone (purple) by mitochondrial enzymes of metabolic active cells. The amount of the fromazone is directly proportional to viable cells. In MTS assay Trioton X treated cells were served as negative control and untreated cells served as positive control. Then, 100 µL of serum free medium containing 20 µL of MTS solution was added to the 96 well plates, and these plates were incubated at 37 °C and 5% CO2 for 4 hours. After incubation, the absorbance of each well was measured at 450 nm by ELISA plate reader. The absorbance is directly proportional to viability of cells. Table 1: MTS assay on Pentablock Polymer A"}, "[3]": {"tested_on": "ARPE-19 (human retinal pigment epithelial cell line)", "assay": "MTS assay (cytotoxicity), Pentablock Polymer B protocol", "details": "ARPE 19, Triton X control; blank = 100", "description": "as §1, §2"}}, "data": [{"substance": "Triton X", "values": [{"measurement": "MTS assay", "setting": "[1]", "result": "0 ± 0.594"}, {"measurement": "MTS assay", "setting": "[2]", "result": "0 ± 0.271"}, {"measurement": "MTS assay", "setting": "PCEC", "result": "0.000 ± 1.099"}, {"measurement": "MTS assay", "setting": "[3]", "result": "0.000 ± 0.491"}]}]}
